This data set can be described thus: physchem. As to the method:
In situ dissolution experiments were performed with a μDISS Profiler apparatus (pION Inc., MA, USA). The system consists of an integrated diode array spectrophotometer connected to a fiber optic UV probe located directly in the reaction vessel (20 ml scintillation vial) and measures the concentration as a function of time, without filtering the solution. Measurement of the dissolution kinetics was carried out at 220 nm and 270 nm, which are optimal for the UV detection of resveratrol and […], respectively. The concentrations of the compounds in the dissolution media (water, buffer pH=4, pH=6) were calculated by means of a standard curve.
The calibration curve was obtained in a mixture of ethanol and water at 8/2 (vol/vol). Stock solutions of resveratrol and resveratrol-piperazine co-crystal, Form 1, respectively, were prepared at 10 mg/ml. The calibration was performed in a 20 ml volume.
The dissolution was performed in 25 mM phosphate buffer (Na2HPO4/KH2PO4) at pH 6, at a concentration of 1 mg/ml resveratrol and resveratrol-piperazine co-crystal, Form 1, respectively. An amount of 20 mg of each compound was dispensed in 20 ml volume of buffer. The process was monitored for 90 minutes.
The calibration was performed in a mixture of ethanol and sodium acetate buffer pH 4.0 at 8/2 (vol/vol) and final concentration of 25 mM sodium acetate. Stock solutions of resveratrol and resveratrol-piperazine co-crystal, Form 1, respectively, were prepared at 10 mg/ml in the solvent mixture. The calibration was performed in 20 ml volume.
The dissolution was performed in 25 mM sodium acetate buffer at pH 4.0, at a concentration of 1 mg/ml resveratrol and resveratrol-piperazine co-crystal, Form 1 (RP1), respectively. An amount of 20 mg compound was dispensed in 20 ml volume of buffer. The process was monitored for 90 minutes.

In brackets after ≈: the same amount, converted by molar mass.

For the setting “aqueous buffer, thermodynamic from solid”, `Oc1ccc(C=Cc2cc(O)cc(O)c2)cc1` [resveratrol] displayed a solubility at 90 min of 30 µg/mL (≈ 131 µM).
As for `C1CNCCN1.Oc1ccc(C=Cc2cc(O)cc(O)c2)cc1` [resveratrol-piperazine co-crystal, Form 1], the aqueous solubility is on record as 65-100 micrograms/ml. Under “FIG. 14 and FIG. 13”, the “time maintained in solution, pH 4 buffer versus pH 6 buffer” value is listed as “longer than in the case of the pH 6 buffer”. Besides, the “solubility compared to that of resveratrol” value (pH 4) was “three times higher”.

One may read the solubility as how much of the substance goes into solution per volume. Higher therefore signals much dissolved substance.

For the origin of these results see patent publication US11560358B2, “Resveratrol-piperazine co-crystals” (LETAVIS AB, priority 2018, dated 2023).
